Biological target: T1, Ectonucleoside triphosphate diphosphohydrolase 2 (Rattus norvegicus) (UniProt O35795)
T1 sequence (whole entry): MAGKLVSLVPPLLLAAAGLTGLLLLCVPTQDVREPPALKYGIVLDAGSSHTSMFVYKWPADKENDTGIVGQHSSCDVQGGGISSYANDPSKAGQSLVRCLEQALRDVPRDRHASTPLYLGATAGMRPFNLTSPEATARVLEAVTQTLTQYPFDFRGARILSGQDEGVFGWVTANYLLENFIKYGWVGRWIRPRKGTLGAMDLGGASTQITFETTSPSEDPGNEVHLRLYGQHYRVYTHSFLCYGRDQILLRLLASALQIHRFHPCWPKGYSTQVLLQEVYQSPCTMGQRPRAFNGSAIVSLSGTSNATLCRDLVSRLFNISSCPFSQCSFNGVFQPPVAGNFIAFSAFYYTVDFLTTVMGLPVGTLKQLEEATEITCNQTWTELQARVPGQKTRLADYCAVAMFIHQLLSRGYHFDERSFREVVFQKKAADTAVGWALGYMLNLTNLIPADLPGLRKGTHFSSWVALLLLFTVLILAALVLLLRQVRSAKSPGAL
Settings: CHO, 1 mM
Description: Inhibition of rat recombinant NTPDase2 expressed in CHO cells at 1 mM

CCN(CC)c1ncnc2c1ncn2[C@@H]1O[C@H](COP(=O)(O)OP(=O)(O)C(Br)(Br)P(=O)(O)O)[C@@H](O)[C@H]1O
inhibition: 50%

Reference: ChEMBL document CHEMBL1146151, “Polyoxometalates--a new class of potent ecto-nucleoside triphosphate diphosphohydrolase (NTPDase) inhibitors” (Bioorg Med Chem Lett, 2006)
